Consider 57 molecules from patent US7652047B2, “Phenylamino isothiazole carboxamidines as MEK inhibitors” (Ardea Biosciences, Inc., priority 2005, dated 2010).

The target in the experiment is T1, MEK1^CA (human GST-MEK1, constitutively active, Ser218Asp and Ser222Asp) (Homo sapiens, UniProt Q02750, S218D/S222D).
T1 construct: GST; made in house; host or cells: Escherichia coli
In words: MEK1 enzymatic activity assay (MEK1^CA / ERK2 / MBP, [γ-33P]ATP incorporation). The format is biochemical. The gist of the method: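 Cascade assay: 25 µl reactions with 0.002 nmol E. coli-expressed GST-MEK1 S218D/S222D, 0.02 nmol His-tagged mouse ERK2, 0.25 nmol MBP, 0.25 nmol unlabeled ATP and 0.1 µCi [γ-33P]ATP. Compound preincubated 30 min at ambient temperature with MEK1/ERK2; stopped with TCA, 33P-labelled protein filter-captured and scintillation-counted.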

Where [1] appears, read: Table 1, compounds of formula I, read-out: Avg IC50.
The mark [2] stands for this setting: Table 4, R' is (CH2)1 or 2-G, read-out: IC50.

Read-outs that look alike come from different tables or passages of the source.

T1 sequence (Q02750 whole entry S218D/S222D): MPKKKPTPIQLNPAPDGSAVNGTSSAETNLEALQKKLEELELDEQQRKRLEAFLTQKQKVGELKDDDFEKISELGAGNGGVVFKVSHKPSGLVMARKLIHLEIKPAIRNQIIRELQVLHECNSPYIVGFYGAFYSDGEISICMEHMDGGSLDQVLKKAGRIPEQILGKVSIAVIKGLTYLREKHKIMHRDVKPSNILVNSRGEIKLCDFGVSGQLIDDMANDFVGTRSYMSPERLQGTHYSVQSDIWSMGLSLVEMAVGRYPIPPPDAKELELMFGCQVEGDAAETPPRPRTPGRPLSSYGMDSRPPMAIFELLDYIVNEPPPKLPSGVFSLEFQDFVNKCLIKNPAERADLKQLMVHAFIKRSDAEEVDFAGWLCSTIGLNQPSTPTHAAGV

As for `Cc1cc(Oc2ccc(F)cc2Cl)ccc1Nc1snc(O)c1C(=N)N(O)C(C)C` [compound 462], under setting [1], the IC50 was 100 to 500 nM. Turning to `N=C(NCC1CCCCC1)c1c(O)nsc1Nc1ccc(Oc2ccccc2)nc1` [drawing 828], under setting [2], the IC50 lay in the range of 100 to 500 nM.

As to `CC(C)NC(=N)c1c(O)nsc1Nc1ccc(Oc2ccc(C(F)(F)F)cc2)cc1` [compound 391], the IC50 under setting [1] was 100 to 500 nM.

As for `CC(C)NC(=N)c1c(O)nsc1Nc1ccc(Oc2cc(F)ccc2F)cc1` [compound 349], under setting [1], the IC50 fell in the range of 1 to 100 nM. Same read-out and setting: next, `N=C(NCCN1CCOCC1)c1c(O)nsc1Nc1ccc(Oc2ccc(Cl)cc2Cl)cc1` [compound 426]: 1 to 100 nM. On to `Cc1cc(Nc2snc(O)c2C(=N)NC(C)CO)ccc1Oc1ccccc1` (stereo not drawn) [compound 324], for which the IC50 under setting [1] was in the range of 100 to 500 nM. In the case of `CC(C)(CO)NC(=N)c1c(O)nsc1Nc1ccc(Oc2ccccc2)cc1` [compound 188], the IC50 under setting [1] lay in the range of 100 to 500 nM.

`N=C(NCC1CCCCC1)c1c(O)nsc1Nc1ccc2c(c1)Cc1ccccc1-2` [compound 111]: the IC50 under setting [1] is above 500 nM. Take `N=C(NCc1cccc2ccccc12)c1c(O)nsc1Nc1cccc(Cl)c1Cl` [compound 105]: the IC50 under setting [1] was above 500 nM. Turning to `CC(CO)NC(=N)c1c(O)nsc1Nc1ccc(Oc2cccc(C(C)(C)C)c2)cc1` (stereo not drawn) [compound 284], under setting [1], the IC50 was in the range of 100 to 500 nM.

With `N=C(NC(CO)CO)c1c(O)nsc1Nc1ccc(Oc2ccccc2)cc1` [compound 164], under setting [1], the IC50 fell in the range of 1 to 100 nM.

Take `CC(C)NC(=N)c1c(O)nsc1Nc1cc(Cl)cc(Cl)c1` [compound 224]: the IC50 under setting [1] was 100 to 500 nM. Same read-out and setting: next, `Cc1cccc(Nc2snc(O)c2C(=N)NCC2CCCCC2)c1` [compound 81]: above 500 nM; `CC(CO)NC(=N)c1c(O)nsc1Nc1ccc(Oc2ccc(Cl)cc2)c(Cl)c1` (stereo not drawn) [compound 359]: 100 to 500 nM; `CCC[C@H]1CC[C@H](c2ccc(Nc3snc(O)c3C(=N)NCC(C)(C)CO)cc2)CC1` [compound 165]: 100 to 500 nM.

In the case of `N=C(NCC1CCCCC1)c1c(O)nsc1Nc1ccccc1` [compound 93], under setting [1], the IC50 was above 500 nM.

Take `CC(C)NC(=N)c1c(O)nsc1Nc1ccc(Oc2cc(C(F)(F)F)ccc2F)cc1` [compound 355]: the IC50 under setting [1] fell in the range of 1 to 100 nM.

Turning to `N=C(NCC1CCCCC1)c1c(O)nsc1Nc1ccc(Oc2cncnc2)cc1` [compound 137], under setting [1], the IC50 is above 500 nM. `CC(O)CNC(=N)c1c(O)nsc1Nc1ccc(Oc2ccccc2C(=O)NCC(C)O)cc1` (stereo not drawn) [compound 507]: under setting [1], the IC50 was above 500 nM. On the same count and under the same terms, under `CC(C)NC(=N)c1c(O)nsc1Nc1ccc(Oc2cccc(F)c2)cc1` [compound 272] stands 1 to 100 nM.

On to `N=C(N[C@H]1CC[C@H](O)CC1)c1c(O)nsc1Nc1ccc(Oc2ccccc2)cc1` [compound 152], for which, under setting [1], the IC50 was in the range of 1 to 100 nM. Take `COC(=O)c1cccc(Nc2snc(O)c2C(=N)NC(C)CO)c1C` (stereo not drawn) [compound 490]: the IC50 under setting [1] was 100 to 500 nM. For `CC(C)NC(=N)c1c(O)nsc1Nc1ccc(Oc2cc(F)cc(F)c2Cl)cc1` [compound 329], the IC50 under setting [1] was in the range of 1 to 100 nM.

As for `CC(C)NC(=N)c1c(O)nsc1Nc1ccc(Oc2ccc(F)cc2)cc1` [compound 205], under setting [1], the IC50 is 100 to 500 nM. On to `N=C(NCC(O)CO)c1c(O)nsc1Nc1ccc(-c2nc3ccccc3[nH]2)cc1` (stereo not drawn) [compound 512], for which the IC50 under setting [1] is above 500 nM. As for `CC(O)CNC(=N)c1c(O)nsc1Nc1ccc(Oc2ccccc2)cc1` (stereo not drawn) [compound 156], the IC50 under setting [1] lay within 100 to 500 nM. As to `CN(C)CCNC(=N)c1c(O)nsc1Nc1ccc(Oc2ccc(Cl)cc2Cl)cc1` [compound 425], under setting [1], the IC50 was in the range of 100 to 500 nM. On to `CC(C)NC(=N)c1c(O)nsc1Nc1ccc(Oc2cccc(Cl)c2Cl)c(Cl)c1` [compound 383], for which the IC50 under setting [1] lay within 1 to 100 nM.

Consider `N=C(NO)c1c(O)nsc1Nc1ccc(Oc2ccccc2)cc1` [compound 130], for which the IC50 under setting [1] is 1 to 100 nM. For `CC(C)NC(=N)c1c(O)nsc1Nc1ccc(Oc2ccccc2)cc1` [Cpd 28], the IC50 under setting [1] was in the range of 1 to 100 nM.

For the molecule `CNC(=N)c1c(O)nsc1Nc1ccc(C(=O)N2CCc3cc(F)ccc32)cc1` [E-22], the IC50 (Table 2, Ar1-A contains an amido or indolo group, read-out: IC 50) is above 1000 nM. For the molecule `CC(C)NC(=N)c1c(O)nsc1Nc1ccc(Oc2ccc(F)cc2F)cc1` [compound 357], under setting [1], the IC50 lay within 1 to 100 nM. For `N=C(NCC1CCCCC1)c1c(O)nsc1NCCc1ccccc1` [compound 120], under setting [1], the IC50 was above 500 nM.

For `N=C(NCCCCO)c1c(O)nsc1Nc1ccc(Oc2ccccc2)cc1` [Cpd 9], the IC50 under setting [1] lay within 1 to 100 nM.

On to `N=C(NCCN1CCOCC1)c1c(O)nsc1Nc1ccc(Oc2cc(F)cc(F)c2)cc1` [drawing 830], for which the IC50 under setting [2] was in the range of 100 to 500 nM. Regarding `CC(C)NC(=N)c1c(O)nsc1Nc1ccc(Oc2cc(Cl)cc(Cl)c2)cc1` [compound 248], the IC50 under setting [1] fell in the range of 1 to 100 nM. In the case of `COC(=O)c1ccccc1Oc1ccc(Nc2snc(O)c2C(=N)NC(C)CO)cc1` (stereo not drawn) [compound 493], under setting [1], the IC50 lay in the range of 1 to 100 nM.

Take `N/C(=N\CC1CCCCC1)c1c(O)nsc1Nc1ccccc1C(=O)NCC1CCCCC1` [compound 88]: under setting [1], the IC50 is above 500 nM. With `Cc1ccc(Oc2ccc(Nc3snc(O)c3C(=N)NCC3CCCCC3)cc2)cc1` [compound 109], the IC50 under setting [1] was in the range of 1 to 100 nM.

Consider `CC(C)NC(=N)c1c(O)nsc1Nc1ccccc1Oc1ccccc1` [compound 456], for which the IC50 under setting [1] lay within 100 to 500 nM. Regarding `CC(O)CNC(=N)c1c(O)nsc1Nc1ccc(Oc2cc(F)cc(F)c2)cc1` (stereo not drawn) [compound 422], under setting [1], the IC50 was 1 to 100 nM. Consider `CC(C)NC(=N)c1c(O)nsc1Nc1ccc(Oc2cc(F)ccc2Cl)c(Cl)c1` [compound 382], for which the IC50 under setting [1] was 1 to 100 nM.

In the case of `CC(C)NC(=N)c1c(O)nsc1Nc1ccc(Oc2cc(F)cc(C(F)(F)F)c2)cc1` [compound 358], under setting [1], the IC50 fell in the range of 100 to 500 nM. Turning to `CC(=O)Nc1ccc(Oc2ccc(Nc3snc(O)c3C(=N)NCC(O)CO)cc2)cc1` (stereo not drawn) [compound 145], the IC50 under setting [1] was above 500 nM.

Take `CC(C)NC(=N)c1c(O)nsc1Nc1ccc(C2CCCCC2)cc1` [compound 170]: the IC50 under setting [1] lay within 100 to 500 nM. In the case of `N=C(NCC1CCCCC1)c1c(O)nsc1Nc1cccc(Oc2ccccc2)c1` [compound 83], under setting [1], the IC50 fell in the range of 100 to 500 nM. As for `N=C(NCC1CCCCC1)c1c(O)nsc1NC1CCCCC1` [compound 90], the IC50 under setting [1] was above 500 nM. Regarding `N=C(NN1CCOCC1)c1c(O)nsc1Nc1ccc(Oc2ccccc2)cc1` [Cpd 6], the IC50 under setting [1] is 1 to 100 nM. Regarding `CC(CO)NC(=N)c1c(O)nsc1Nc1ccc(Oc2ccccc2Br)cc1` (stereo not drawn) [compound 295], the IC50 under setting [1] lay within 1 to 100 nM. For the molecule `CC(C)NC(=N)c1c(O)nsc1Nc1ccc(Oc2ccc(F)cc2Cl)c(F)c1` [compound 369], the IC50 under setting [1] fell in the range of 1 to 100 nM. Same read-out and setting: under `Cc1cc(C#N)cc(C)c1Oc1ccc(Nc2snc(O)c2C(=N)NC(C)C)cc1` [compound 262] stands above 500 nM. Take `Cc1cc(Nc2snc(O)c2C(=N)NC(C)C)ccc1Oc1ccc(F)cc1` [compound 397]: the IC50 under setting [1] is above 500 nM.

Consider `CC(CO)NC(=N)c1c(O)nsc1Nc1ccc(Oc2ccccc2F)cc1` (stereo not drawn) [compound 372], for which, under setting [1], the IC50 was 100 to 500 nM.

In the case of `Cc1cc(Oc2cccc(F)c2F)ccc1Nc1snc(O)c1C(=N)NC(C)CO` (stereo not drawn) [compound 464], under setting [1], the IC50 fell in the range of 1 to 100 nM.

For `CC(C)NC(=N)c1c(O)nsc1Nc1ccc(Oc2cccc(Cl)c2Cl)cc1` [compound 341], the IC50 under setting [1] lay within 1 to 100 nM.

With `Cc1cccc(Oc2ccc(Nc3snc(O)c3C(=N)NC(C)C)cc2)c1C` [compound 345], the IC50 under setting [1] is 1 to 100 nM. For the molecule `CC(C)NC(=N)c1c(O)nsc1Nc1ccc(Oc2ccc(F)cc2)c(Cl)c1` [compound 387], under setting [1], the IC50 was in the range of 100 to 500 nM.
